Measured values as given in US20080200444A1, “SOLUBLE EPOXIDE HYDROLASE INHIBITORS” (Arete Therapeutics, Inc., priority 2006, published 2008).

test system: soluble epoxide hydrolase (sEH); experiment: Fluorescent assay for mouse and human soluble epoxide hydrolase (CMNPC substrate); type: biochemical; settings: inhibitor at 50 nM; recombinant sEH, CMNPC substrate 5 μM, 30° C., pH 7.0; mouse or human enzyme not given
Source text: Fluorescent Assay for Mouse and Human Soluble Epoxide Hydrolase
Recombinant mouse sEH (MsEH) and human sEH (HsEH) were produced in a baculovirus expression system as previously reported. Grant et al., J. Biol. Chem., 268:17628-17633 (1993); Beetham et al., Arch. Biochem. Biophys., 305:197-201 (1993). The expressed proteins were purified from cell lysate by affinity chromatography. Wixtrom et al., Anal. Biochem., 169:71-80 (1988). Protein concentration was quantified using the Pierce BCA assay using bovine serum albumin as the calibrating standard. The preparations were at least 97% pure as judged by SDS-PAGE and scanning densitometry. They contained no detectable esterase or glutathione transferase activity which can interfere with the assay. The assay was also evaluated with similar results in crude cell lysates or homogenate of tissues.
The IC50s for each inhibitor were according to the following procedure:
Cyano(2-methoxynaphthalen-6-yl)methyl(3-phenyloxiran-2-yl)methyl carbonate (CMNPC; Jones P. D. et. al.; Analytical Biochemistry 2005; 343: pp.66-75)
Bis/Tris HCl 25 mM pH 7.0 containing 0.1 mg/mL of BSA (buffer A)
CMNPC at 0.25 mM in DMSO.
Mother solution of enzyme in buffer A (Mouse sEH at 6 μg/mL and Human sEH at 5 μg/mL).
Inhibitor dissolved in DMSO at the appropriate concentration.
In a black 96 well plate, fill all the wells with 150 μL of buffer A.
Add 2 μL of DMSO in well A2 and A3, and then add 2 μL of inhibitor solution in A1 and A4 through A12.
Add 150 μL of buffer A in row A, then mix several time and transfer 150 μL to row B. Repeat this operation up to row H. The 150 μL removed from row H is discarded.
Add 20 μL of buffer A in column 1 and 2, then add 20 μL of enzyme solution to column 3 to 12.
Incubate the plate for 5 minutes in the plate reader at 30° C.
During incubation prepare the working solution of substrate by mixing 3.68 mL of buffer A (4×0.920 mL) with 266 μL (2×133 μL) of substrate solution).
At t=0, add 30 μL of working substrate solution with multi-channel pipette labeled “Briggs 303” and start the reading ([S]final: 5 μM).
Read with ex: 330 nm (20 nm) and em: 465 nm (20 nm) every 30 second for 10 minutes. The velocities are used to analyze and calculate the IC50s.

% Inhibition at 50 nM [%] | Structure (SMILES)
94 | O=C(NC1CCCN(S(=O)(=O)c2ccc(Cl)cc2)C1)NC12CC3CC(CC(C3)C1)C2 (stereo not shown) [Compound 3, 1-Adamantan-1-yl-3-[1-(4-chloro-benzenesulfonyl)-piperidin-3-yl]-urea]
95 | O=C(NC1CCCN(S(=O)(=O)c2cccc(C(F)(F)F)c2)C1)NC12CC3CC(CC(C3)C1)C2 (stereo not shown) [Compound 4, 1-Adamantan-1-yl-3-[1-(3-trifluoromethyl-benzenesulfonyl)-piperidin-3-yl]-urea]
76 | CS(=O)(=O)N1CCCC(NC(=O)NC23CC4CC(CC(C4)C2)C3)C1 (stereo not shown) [Compound 2, 1-Adamantan-1-yl-3-(1-methanesulfonyl-piperidin-3-yl)-urea]

Structure (SMILES) | % Inhibition at 50 nM [%]
CC(=O)N1CCCC(NC(=O)NC23CC4CC(CC(C4)C2)C3)C1 (stereo not shown) [Compound 1, 1-(1-Acetyl-piperidin-3-yl)-3-adamantan-1-yl-urea] | 69
